In PubChem BioAssay (NCI):
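In this assay, cells in 96-well plates receive the compound at five concentrations for 48 hours. Endpoints are linearly interpolated between the surrounding concentrations. TGI: total growth inhibition.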

Key:
Assay in all cases: NCI-60 cell line screen, 48 h
[1] = test system: CAKI-1 renal
[2] = test system: EKVX NSCLC
[3] = test system: HOP-92 NSCLC
[4] = test system: HT29 colon
[5] = test system: IGROV1 ovarian
[6] = test system: LOX IMVI melanoma
[7] = test system: MALME-3M melanoma
[8] = test system: MOLT-4 leukemia
[9] = test system: NCI-H226 lung
[10] = test system: SK-MEL-28 melanoma
[11] = test system: DU-145 prostate
[12] = test system: MDA-MB-435
[13] = test system: NCI/ADR-RES ovarian
[14] = test system: BT-549 breast

Structure (SMILES) | TGI [1] | TGI [2] | TGI [3] | TGI [4] | TGI [5] | TGI [6] | TGI [7] | TGI [8] | TGI [9] | TGI [10] | TGI [11] | TGI [12] | TGI [13] | TGI [14]
COc1ccccc1NC(=O)C(=O)C(c1cnc2ccc([N+](=O)[O-])cc2n1)[N+](=O)[O-] (centres undefined) | > 100 µM | > 100 µM | > 100 µM | > 100 µM | > 100 µM | > 100 µM | > 100 µM | > 100 µM | > 100 µM | > 100 µM | – | – | – | –
CC(c1ccccc1)n1c2ccccc2c2c(N)ncnc21 (centres undefined) | 62.2 µM | 24.7 µM | 27.6 µM | 31.6 µM | 38.2 µM | 33.1 µM | 36 µM | 52.7 µM | – | 33.8 µM | 42.8 µM | 31 µM | 46.3 µM | –
COc1cc2cnc3c4cc(O)ccc4ccc3c2cc1OC | > 100 µM | > 100 µM | > 100 µM | > 100 µM | > 100 µM | > 100 µM | > 100 µM | > 100 µM | > 100 µM | > 100 µM | – | – | – | –
COc1cc2c(c(OC)c1)C(=O)C(=O)C(CC1(C)OCCCO1)=C2 | 13.1 µM | 29.6 µM | 4.41 µM | 35 µM | 27.8 µM | 12.9 µM | 20.4 µM | > 29.9 µM | 19.6 µM | 28.6 µM | – | – | – | –
CCCC1(N2C(=O)c3ccc4c5c(ccc(c35)C2=O)N(C2(CCC)CCCCC2)C4=O)CCCCC1 | > 100 µM | – | > 100 µM | > 100 µM | – | – | > 100 µM | > 100 µM | – | > 100 µM | > 100 µM | > 100 µM | > 100 µM | –
O=C1CS(=O)c2ccccc2N1 (centres undefined) | > 100 µM | > 100 µM | > 100 µM | > 100 µM | > 100 µM | > 100 µM | > 100 µM | > 100 µM | > 100 µM | > 100 µM | – | – | – | –
c1cc2cc(Cc3ccc4[nH]ccc4c3)ccc2[nH]1 | 33.5 µM | 41.7 µM | 34.9 µM | 33.1 µM | 39.4 µM | 72.3 µM | 34.4 µM | 41 µM | 34.2 µM | 96.7 µM | 56.2 µM | 45.7 µM | – | 45.8 µM
Cc1nc2c(n1Cc1ccc(F)cc1)C(=O)c1ccccc1C2=O | – | > 100 µM | – | > 100 µM | > 100 µM | > 100 µM | 31.7 µM | > 100 µM | > 100 µM | > 100 µM | – | – | – | –
C=C1C(=O)O[C@H]2C1C[C@H](O)/C(C)=C/CC[C@@]1(C)O[C@H]21 (some centres undefined) | 28.4 µM | 40.3 µM | 33 µM | 50.9 µM | 28.3 µM | 23.5 µM | 19.5 µM | – | – | 38.7 µM | 49.5 µM | 37.3 µM | 33.7 µM | –
CC1=C(N2CC2)C(=O)C(C)=C(N2CC2)C1=O | 1.37 µM | 2.68 µM | 0.988 µM | 1 µM | 1.31 µM | 1.38 µM | 0.541 µM | 13.5 µM | 1.18 µM | 1.26 µM | 4.69 µM | – | 0.0574 µM | 5.14 µM
N#C/C(=C\c1ccccc1F)C(=O)c1ccccc1 | > 100 µM | > 100 µM | > 100 µM | > 100 µM | > 100 µM | > 100 µM | > 100 µM | > 100 µM | – | > 100 µM | – | – | – | –
CC(C)OP(=O)(OC(C)C)/C(=N/Nc1ccc([N+](=O)[O-])cc1)NNC(=O)c1ccccc1 | > 100 µM | > 100 µM | 61.3 µM | – | – | 70.8 µM | > 100 µM | 42.2 µM | > 100 µM | 91.3 µM | – | – | – | –
CSc1c(S(C)=O)c2ccccc2n1C (centres undefined) | > 100 µM | > 100 µM | – | > 100 µM | > 100 µM | > 100 µM | > 100 µM | > 100 µM | > 100 µM | > 100 µM | > 100 µM | > 100 µM | > 100 µM | –
Cc1cc2nc3c(C#N)c4c(c(Cl)n3c2cc1C)CCC4 | 35.9 µM | > 100 µM | 95.5 µM | – | – | 32 µM | > 100 µM | > 100 µM | > 100 µM | 88.9 µM | – | 42.5 µM | 46.2 µM | 49 µM
CN(CCO)c1nc(=O)c2c(n1C1OC(CO)C(O)C(O)C1O)CCCC2 (centres undefined) | > 100 µM | > 100 µM | > 100 µM | > 100 µM | > 100 µM | > 100 µM | > 100 µM | > 100 µM | > 100 µM | > 100 µM | – | – | – | –
CCCCCCCC(=O)OC(COC(=O)Cc1ccccc1)COC(=O)C(C)(C)C (centres undefined) | > 100 µM | – | > 100 µM | – | > 100 µM | > 100 µM | > 100 µM | > 100 µM | > 100 µM | > 100 µM | – | – | – | –
